# In patent publication US20190015423A1, “REGULATION OF GENE EXPRESSION BY MODULATING PRIMARY CILIA LENGTH” (THE TRUSTEES OF COLUMBIA UNIVERSITY IN THE CITY OF NEW YORK, priority 2016, published 2019):
# Where a name gives a salt, the structure may show the parent alone.
# Test system: MLO-Y4 osteocytes
# Assay: High-throughput drug screening of primary cilia length and incidence
# Assay type: cell-based
# Details: 10 μM, 16 hours, triplicate; normalized to vehicle control; standard deviation away from the population average
# Protocol: MLO-Y4 osteocytes were maintained on collagen I-coated dishes in MEMα (Life_Technologies) supplemented with 5% fetal bovine serum (FBS), 5% calf serum (CS), and 1% penicillin/streptomycin (P/S) at 37° C. and 5% CO2. Osteocytes were then seeded onto 384-well collagen-coated plates for 72 hours before fixation. […] These libraries include Tocris, Sigma LOPAC, Selleck Chemical, Prestwick, and Spectrum commercially available compound libraries. All cell seeding and plate handling was performed with the Perkin Elmer cell:explorer workstation.
# Cells were fixed in 4% paraformaldehyde and permeabilized with 0.1% Triton-X 100 (Sigma). 10% goat serum (vendor) was used for blocking. Cilia were stained using a monoclonal antibody against acetylated α-tubulin (1:20) from a C3B9 hybridoma cell line, and visualized with A F488 (1:1000, ThermoFisher). Nuclei were visualized with Hoechst. Cells were imaged using a GE INCell 2000 high-throughput imager at 40× magnification. 4 fields of view were taken per well.
# Each pair of nuclei and cilia images was first analyzed individually, then the entire population was examined to evaluate each compound's effect on cilia length and incidence. A custom MATLAB script was developed to perform all image analysis. This script first utilizes an enhanced implementation of a watershed transform, which is a segmentation tool which enables detection of similarly shaped overlapping particles in noisy images by the procedural whittling down of pixels found close to the edge of such particles. The augmentation of the algorithm incorporates thresholding for noise removal based on signal intensity and object size, nuclei dilation to exclude non-cellular artifacts, as well as skeletonization of cilia to quantify length. The results of the analysis are number of nuclei, number of cilia, and average cilia length in each image.
# Compounds were selected based on deviation from the population mean. Each well was normalized to vehicle control images on each plate, allowing the establishment of a normalized population mean. Hits were chosen based on compounds whose triplicate mean was furthest (based on standard deviation away) from the population mean. […] Compounds were classified based on mechanism of action.
# To identify compounds that modulate primary cilia formation a high-throughput platform was developed to automate cell culture, staining, imaging, and analysis, as shown in schematic form in FIG. 18. […] Cells were cultured on 384-well plates, and treated with small molecules with known biologic activity, enabling classification of mechanisms of action. Drug treatment was applied for 16 hours at 10 μM concentration, performed in triplicate, before fixation and immunostaining of primary cilia. Cells were then imaged using the GE INCell 2000 High Content Analyzer, capturing 4 fields of view per well at 40× magnification. Additionally, each plate contains 8 wells of DMSO vehicle control.
# A MATLAB script was developed to detect and analyze changes in ciliogenesis. […] A representative exemplary image (FIG. 19A) is cropped to better display features, scale bar represents 30 μm. A custom MATLAB script was used to identify nuclei and cilia for analysis (FIG. 19B). […] Objects are further filtered based on size and signal intensity.
# Cilia length and incidence for each field of view were normalized to vehicle control on that individual plate. This allowed development of a normalized population average and standard deviation. […] To control for toxic effects only small molecules with at least 40% viability, based on number of nuclei versus control, were selected as hits. Furthermore, compounds repeated between multiple libraries eliciting the same effect on cilia length or incidence were excluded, such that only one of the repeated compounds was selected as a hit.
SMILES,Average Incidence SD Away [SD],Average Length SD Away [SD]
"Cc1cc2c(s1)Nc1ccccc1N=C2N1CCN(C)CC1 [Olanzapine (Zyprexa), Olanzapine]",1.609,
"Cc1nccn1CC1CCc2c(c3ccccc3n2C)C1=O (stereo not shown) [Ondansetron (Zofran), Ondansetron]",1.506,
COC(=O)Nc1nc2ccc([S+]([O-])c3ccccc3)cc2[nH]1 (stereo not shown) [Oxfendazole],2.268,1.574
CCCOc1ccc2nc(NC(=O)OC)[nH]c2c1 [Oxibendazole],4.084,
O=C(O)/C=C/c1ccc(Cn2ccnc2)cc1 [Ozagrel HCl],1.683,
N=C1C=CC(=C(c2ccc(N)cc2)c2ccc(N)cc2)C=C1 [PARAROSANILINE PAMOATE],,2.389
C=C(C)[C@H]1CC=C(C(=O)O)CC1 [PERILLIC ACID (−)],,2.196
Cl.O=C1NCCc2[nH]c(-c3ccncc3)cc21 [PHA 767491 hydrochloride],,1.724
Nc1nccc(-c2ccc3noc(-c4ccc(Cl)cc4)c3c2)n1 [PIM 1 Inhibitor 2],,3.223
CCc1nc(N)nc(N)c1-c1ccc(Cl)cc1 [PYRIMETHAMINE],1.762,3.194
Cc1cc(/C=C/c2ccc3cc(N(C)C)ccc3[n+]2C)c(C)n1-c1ccccc1 [PYRVINIUM PAMOATE],,2.834
CCn1cc(C(=O)O)c(=O)c2cc(F)c(N3CCN(C)CC3)cc21 [Pefloxacin mesylate],1.682,
Nc1nc2[nH]cc(CCc3ccc(C(=O)N[C@@H](CCC(=O)O)C(=O)O)cc3)c2c(=O)[nH]1 [Pemetrexed],2.083,2.765
"O=C1c2ccccc2C(=O)C1c1ccccc1 [Phenindione (Rectadione), Phenindione]",1.688,
"CCc1ccc(CCOc2ccc(CC3SC(=O)NC3=O)cc2)nc1 (stereo not shown) [Pioglitazone hydrochloride (Actos), Pioglitazone hydrochloride]",2.52,
COc1cc(/C=C/C(=O)N2CCC=CC2=O)cc(OC)c1OC [Piperlongumine],,3.198
"C#CCC(Cc1cnc2nc(N)nc(N)c2n1)c1ccc(C(=O)N[C@@H](CCC(=O)O)C(=O)O)cc1 (stereo partly shown) [Pralatrexate(Folotyn), Pralatrexate]",2.193,2.105
CCCOc1ccc(C(=O)OCCN(CC)CC)cc1N [Proparacaine HCl],1.523,
CCCc1cc(=O)[nH]c(=S)[nH]1 [Propylthiouracil],1.659,
C=C[C@H]1C[N@@]2CC[C@H]1C[C@@H]2[C@@H](O)c1ccnc2ccc(OC)cc12 [QUINIDINE GLUCONATE],,1.825
C=C[C@H]1C[N@@]2CC[C@H]1C[C@H]2[C@H](O)c1ccnc2ccc(OC)cc12 [QUININE SULFATE],,1.802
COC(=O)[C@H]1[C@H]2C[C@@H]3c4[nH]c5cc(OC)ccc5c4CCN3C[C@H]2C[C@@H](OC(=O)c2cc(OC)c(OC)c(OC)c2)[C@@H]1OC [RESERPINE],,1.972
"COc1ccccc1OCC(O)CN1CCN(CC(=O)Nc2c(C)cccc2C)CC1 (stereo not shown) [Ranolazine (Ranexa), Ranolazine]",1.565,
CC1=C(/C=C/C(C)=C/C=C/C(C)=C/C(=O)Nc2ccc(O)cc2)C(C)(C)CCC1 [Retinoic acid p-hydroxyanilide],,2.487
"CCN(C)C(=O)Oc1cccc([C@H](C)N(C)C)c1 [Rivastigmine tartrate (Exelon), Rivastigmine tartrate]",1.664,

SMILES,Average Incidence SD Away [SD],Average Length SD Away [SD]
"CC(C)c1nc(N(C)S(C)(=O)=O)nc(-c2ccc(F)cc2)c1/C=C/[C@@H](O)C[C@@H](O)CC(=O)O [Rosuvastatin calcium (Crestor), Rosuvastatin calcium]",1.644,
COc1ccc2cccc(N3CCN(CCNC(=O)c4ccc(F)cc4)CC3)c2c1.Cl [S 14506 hydrochloride],,1.54
Cc1nn(-c2ccccc2)c(C)c1/C=N/N1CCN(Cc2ccccc2)CC1 [SANT-1],,1.811
C[S+]([O-])c1ccc(-c2nc(-c3ccc(F)cc3)c(-c3ccncc3)[nH]2)cc1 (stereo not shown) [SB 203580],,1.797
Cn1ccc2cc3c(cc21)CCN3C(=O)Nc1cccnc1 [SB 206553 hydrochloride],,1.704
COc1cc2c(cc1C(F)(F)F)N(C(=O)Nc1cc(F)cc(-c3cccnc3)c1)CC2 [SB 228357],,2.332
COc1nccc(-c2c(-c3ccc(F)cc3)ncn2C2CCC(O)CC2)n1 (stereo not shown) [SB 239063],1.795,4
Cc1cc(NC(=O)Nc2ccc(N(C)C)cc2)c2cc(F)cc(F)c2n1 [SB 408124],,2.398
O=C1NC(=O)C(c2ccccc2[N+](=O)[O-])=C1Nc1ccc(O)c(Cl)c1 [SB 415286],,2.05
O=C1C=C2C=C[C@@H]3C[C@@]2(O1)[C@H]1CCCCN31 [SECURININE],,1.502
Br.C=CCN1CCc2cc(O)c(O)cc2C(c2ccccc2)C1 (stereo not shown) [SKF 77434 hydrobromide],,1.527
Fc1ccc(-c2nc3n(c2-c2ccncc2)CCS3)cc1 [SKF 86002 dihydrochloride],,1.549
CCCC(=O)[O-].[Na+] [Sodium butyrate],2.3981,
"CNC(=O)c1cc(Oc2ccc(NC(=O)Nc3ccc(Cl)c(C(F)(F)F)c3)cc2)ccn1 [Sorafenib (Nexavar), Sorafenib]",1.678,1.5
Cc1cc(NS(=O)(=O)c2ccc(N)cc2)no1 [Sulfamethoxazole],1.767,
Nc1nc2nc[nH]c2c(=S)[nH]1 [THIOGUANINE],,1.675
CC(C)(C)NCC(O)c1ccccc1Cl (stereo not shown) [TULOBUTEROL],,2.06
CCOC(=O)[C@H](CCc1ccccc1)N[C@H]1CS[C@H](c2cccs2)CN(CC(=O)O)C1=O [Temocapril HCl],1.877,
C[N+]1(C)[C@@H]2C[C@@H](OC(=O)C(O)(c3cccs3)c3cccs3)C[C@H]1[C@@H]1O[C@@H]12 [Tiotropium Bromide hydrate],1.593,
Cc1cccc(N(C)C(=S)Oc2ccc3ccccc3c2)c1 [Tolnaftate],1.5099,
CC[C@@]1(O)C(=O)OCc2c1cc1n(c2=O)Cc2cc3c(CN(C)C)c(O)ccc3nc2-1 [Topotecan hydrochloride hydrate],2.75,3.899
"NC[C@H]1CC[C@H](C(=O)O)CC1 [Tranexamic acid (Transamin), Tranexamic acid]",1.582,
Nc1nc(N)c2nc(-c3ccccc3)c(N)nc2n1 [Triamterene],,2.775
"O=c1[nH]c(=O)n([C@H]2C[C@H](O)[C@@H](CO)O2)cc1C(F)(F)F [Trifluridine (Viroptic), Trifluridine]",2.117,1.773
CN1[C@@H]2CC[C@H]1C[C@@H](OC(=O)c1c[nH]c3ccccc13)C2 [Tropisetron],1.694,
